In US12065443B2, “Compounds and pharmaceutical compositions thereof for the treatment of diseases” (priority 2017, dated 2024) one finds IC50 and EC50 data, which are given here for 16 compounds.

The target of one assay is T1, SIK1 (Homo sapiens, UniProt P57059).
T1 construct: purchased Carna Biosciences 02-131
The assay can be described thus: biochemical. Particulars: 33P radioactive SIK kinase assay, AMARA peptide, 10 μM ATP; read-out: SIK1 IC50. An outline of the steps:
(§1)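 Read-out: ^33P incorporated into AMARA peptide, counted on filter plates, taken as kinase activity. Reactions start on addition of labeled/unlabeled ATP to enzyme plus substrate and end with phosphoric acid. Controls: 1% DMSO (negative) and 10 μM staurosporine (positive), final.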

For another assay, the target named is T2, SIK3 (Homo sapiens, UniProt Q9Y2K2).
T2 construct: purchased SignalChem S12-11G-100
T2 sequence (Q9Y2K2 whole entry): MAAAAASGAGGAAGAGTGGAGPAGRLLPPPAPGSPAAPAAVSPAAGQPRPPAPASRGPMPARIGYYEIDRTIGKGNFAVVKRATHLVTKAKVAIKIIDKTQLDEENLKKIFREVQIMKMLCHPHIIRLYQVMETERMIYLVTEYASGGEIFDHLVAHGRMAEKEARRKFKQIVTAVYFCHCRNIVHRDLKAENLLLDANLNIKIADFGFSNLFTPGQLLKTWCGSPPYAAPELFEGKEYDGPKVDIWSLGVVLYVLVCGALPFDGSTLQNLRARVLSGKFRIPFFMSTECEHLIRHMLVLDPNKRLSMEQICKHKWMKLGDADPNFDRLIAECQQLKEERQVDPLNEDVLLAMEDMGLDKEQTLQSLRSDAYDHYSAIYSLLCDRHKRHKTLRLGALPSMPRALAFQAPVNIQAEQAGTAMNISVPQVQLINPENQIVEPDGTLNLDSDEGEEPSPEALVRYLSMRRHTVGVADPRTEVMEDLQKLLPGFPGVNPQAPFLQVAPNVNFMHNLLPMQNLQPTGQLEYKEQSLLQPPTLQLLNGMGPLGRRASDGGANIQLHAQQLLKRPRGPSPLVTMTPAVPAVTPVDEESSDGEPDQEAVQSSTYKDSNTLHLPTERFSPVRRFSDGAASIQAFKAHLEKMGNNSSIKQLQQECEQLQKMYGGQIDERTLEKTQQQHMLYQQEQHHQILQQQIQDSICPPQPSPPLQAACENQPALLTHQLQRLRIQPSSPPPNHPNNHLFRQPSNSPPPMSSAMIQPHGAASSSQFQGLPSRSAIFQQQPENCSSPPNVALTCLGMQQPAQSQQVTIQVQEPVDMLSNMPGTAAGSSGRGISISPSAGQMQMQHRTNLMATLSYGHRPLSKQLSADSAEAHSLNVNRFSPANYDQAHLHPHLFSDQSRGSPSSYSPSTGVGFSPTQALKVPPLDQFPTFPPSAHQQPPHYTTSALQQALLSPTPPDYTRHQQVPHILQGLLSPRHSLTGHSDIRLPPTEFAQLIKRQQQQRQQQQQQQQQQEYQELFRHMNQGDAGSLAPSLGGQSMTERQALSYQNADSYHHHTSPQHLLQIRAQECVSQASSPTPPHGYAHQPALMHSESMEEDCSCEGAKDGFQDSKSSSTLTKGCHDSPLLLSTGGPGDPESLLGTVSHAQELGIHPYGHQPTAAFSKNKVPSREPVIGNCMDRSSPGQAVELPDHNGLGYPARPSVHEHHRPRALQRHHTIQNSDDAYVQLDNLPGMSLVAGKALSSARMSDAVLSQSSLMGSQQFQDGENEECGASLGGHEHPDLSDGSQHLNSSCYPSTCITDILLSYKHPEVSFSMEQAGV
The assay is described as follows: biochemical. An outline of the steps:
as §1

A further assay addresses T3, SIK2 (Homo sapiens, UniProt Q9H0K1).
T3 construct: purchased ThermoFisher Scientific PV4792
The assay can be described thus: biochemical. Particulars: 33P radioactive SIK kinase assay, AMARA peptide, 10 μM ATP. An outline of the steps:
as §1

Assay [1] relates to LPS-induced TNFα secretion in monocyte-derived macrophages (MdM). The assay is described as follows: MdM assay: LPS-triggered TNFα (ELISA). It counts as cell-based, human. Particulars: Homo sapiens, Macrophage, LPS-triggered TNFα inhibition. As to the method:
This assay evaluates illustrative compounds of the invention for their inhibition of LPS-induced TNFα and LPS triggered IL-10 secretion in monocyte-derived macrophages.
PBMCs are isolated from human blood samples (buffycoats). The buffy coat is aseptically transferred into a 50 mL Falcon tube, and diluted 1/2 in PBS. Falcon tubes are filled with 20 mL Lymphoprep™, on top of which 25 mL of the buffy coat is carefully added, tubes are centrifuged for 35 min at 400 g in temperature controlled centrifuge, without brake, at 25° C. PBMCs are aspirated from the white interface layer between sample and Lymphoprep™. PBMCs are washed five times in PBS.
PBMCs are centrifuged at 300×g for 10 min and resuspended at a density of 1.0E07 cells/80 μL Miltenyi buffer (PBS, pH 7.4, 1% FBS, 2 mM EDTA).
Starting from this point of the protocol all steps are performed on ice. 20 μL of CD14+ micro-beads are added per 1.0E07 cells, the tube is mixed and incubated for 15 min in the fridge at 4° C. Cell suspension volume is adjusted to total volume of 100 mL using Miltenyi buffer, mixed gently and subsequently centrifuged for 10 min at 300× g. Supernantant is discarded and cell pellet is resuspended in 12 mL of Miltenyi buffer.
Four LS columns are placed in the MACS Separator (magnet) from Miltenyi Biotec, and are prewet by rinsing with 3 mL of MACS buffer per column. Three mL of cell suspension is added onto the column (max 1*10^8 of labelled cells/column), and columns are subsequently washed 3 times with 3 mL of Miltenyi buffer.
The columns are removed from the magnets, and 5 mL of Miltenyi buffer are added to the column to flush out the CD14+ fraction by pushing the plunger into the column. The flushed fractions are collected in a fresh 50 mL Falcon and volume is adjusted to 30 mL using Miltenyi buffer, cells are centrifuged for 10 min at 300× g. The obtained cell pellet is resuspended in 10 mL RPMI w/o FBS, and cell density is determined using a hematologic analyser (Sysmex XS-500i).
On day 10, MdMs are triggered and compound is added.
A compound dilution plate is made in 100% DMSO by 3-fold dilution of 10 mM stock solution. An intermediate dilution plate (10× final concentration) is made by diluting the compound dilution plate 50-fold in RPMI medium.
Medium is carefully removed from cell plates using multichannel pipette, and replaced by 80 μL fresh medium. 10 μL of the 10× final concentration compound is added to the cells and incubated for 1 hour at 37° C. before addition of trigger. No trigger conditions/trigger conditions are spiked with equal final DMSO concentrations of 0.2% DMSO. 10 μL of 10×LPS (final conc. 200 ng/mL) solution are added to all wells except for the ‘no trigger wells’ where 10 μL medium is added. Supernatant is collected after 2 h (IL-10 determination) and after 20 h (TNFα determination) of LPS triggering.
The plate is then washed once with PBST (PBS+0.05% Tween20) and once with PBS followed by the addition of 100 μL of blocking buffer (1% Bovine Serum Albumin (BSA)-5% Sucrose) and plates are sealed and incubated for at least 4 h at RT. After washing the plate once with PBST and once with PBS, 40 μL of standard or sample are added (TNFα standard curve is prepared using a 1/2 serial dilution starting from 16000 pg/mL; dilutions are made in dilution buffer (PBS+1% BSA)). Plates are washed twice with PBST, and once with PBS, after which 35 μL of the detection antibody is added (final concentration 0.25 μg/mL diluted in dilution buffer) and plates are incubated for at least 2 h at RT. Plates are washed twice with PBST, and once with PBS, where after 35 μL of Strep-HRP conjugate (0.5 μg/mL final concentration diluted in dilution buffer) is added. Plates are incubated in the dark, at RT for at least 45 min but no longer than 1 hour. Plates are washed twice with PBST, and once with PBS.
A general note: ELISA stands for enzyme-linked immunosorbent assay.

T3 sequence (Q9H0K1 whole entry): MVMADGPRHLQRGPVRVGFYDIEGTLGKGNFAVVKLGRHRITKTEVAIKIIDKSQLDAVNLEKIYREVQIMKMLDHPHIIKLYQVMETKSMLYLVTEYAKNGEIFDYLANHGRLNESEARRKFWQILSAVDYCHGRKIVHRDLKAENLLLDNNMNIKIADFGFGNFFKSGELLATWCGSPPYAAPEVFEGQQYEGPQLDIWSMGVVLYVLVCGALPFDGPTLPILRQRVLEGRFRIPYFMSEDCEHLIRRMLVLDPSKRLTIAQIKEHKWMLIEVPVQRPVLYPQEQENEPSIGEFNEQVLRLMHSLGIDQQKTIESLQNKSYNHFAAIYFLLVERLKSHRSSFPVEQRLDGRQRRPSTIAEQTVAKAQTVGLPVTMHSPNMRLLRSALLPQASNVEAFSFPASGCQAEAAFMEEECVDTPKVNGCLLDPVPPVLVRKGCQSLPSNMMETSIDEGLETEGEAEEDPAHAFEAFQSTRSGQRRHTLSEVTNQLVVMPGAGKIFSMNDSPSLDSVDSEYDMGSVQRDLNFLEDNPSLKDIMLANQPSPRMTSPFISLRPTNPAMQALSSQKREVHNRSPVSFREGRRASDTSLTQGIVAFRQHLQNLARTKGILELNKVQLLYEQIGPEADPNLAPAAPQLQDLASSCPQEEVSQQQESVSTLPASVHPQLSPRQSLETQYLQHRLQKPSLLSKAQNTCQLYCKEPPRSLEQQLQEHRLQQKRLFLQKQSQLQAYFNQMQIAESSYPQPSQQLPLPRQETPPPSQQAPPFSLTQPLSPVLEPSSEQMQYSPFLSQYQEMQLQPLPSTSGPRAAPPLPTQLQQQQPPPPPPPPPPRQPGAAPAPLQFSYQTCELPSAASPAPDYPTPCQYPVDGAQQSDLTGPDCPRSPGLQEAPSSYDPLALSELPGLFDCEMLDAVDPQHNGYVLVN
T1 sequence (P57059 whole entry): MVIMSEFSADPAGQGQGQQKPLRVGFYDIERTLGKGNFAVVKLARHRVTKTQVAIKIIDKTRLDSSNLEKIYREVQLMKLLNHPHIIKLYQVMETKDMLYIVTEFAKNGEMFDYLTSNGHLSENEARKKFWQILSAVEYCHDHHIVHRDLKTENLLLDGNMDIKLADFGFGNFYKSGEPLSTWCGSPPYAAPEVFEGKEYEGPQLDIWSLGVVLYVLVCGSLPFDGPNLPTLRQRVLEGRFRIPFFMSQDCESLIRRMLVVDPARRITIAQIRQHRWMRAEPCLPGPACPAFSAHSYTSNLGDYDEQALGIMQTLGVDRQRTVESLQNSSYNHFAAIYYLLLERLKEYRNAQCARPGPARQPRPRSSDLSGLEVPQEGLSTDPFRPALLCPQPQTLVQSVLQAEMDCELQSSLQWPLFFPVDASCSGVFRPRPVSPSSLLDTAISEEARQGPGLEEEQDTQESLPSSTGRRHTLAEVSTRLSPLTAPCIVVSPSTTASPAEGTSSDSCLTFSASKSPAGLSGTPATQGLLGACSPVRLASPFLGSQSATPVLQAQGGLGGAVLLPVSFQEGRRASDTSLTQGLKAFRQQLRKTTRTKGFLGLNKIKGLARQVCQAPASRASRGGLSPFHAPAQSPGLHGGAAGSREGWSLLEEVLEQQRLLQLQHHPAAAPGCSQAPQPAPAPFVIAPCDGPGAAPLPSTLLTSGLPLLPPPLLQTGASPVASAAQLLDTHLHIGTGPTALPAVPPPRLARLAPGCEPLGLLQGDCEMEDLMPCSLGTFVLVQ

Turning to `COc1cc(-n2cnc3cc(-c4cnn(C)c4)ccc32)cc(OC)c1C(=O)NC1CC(F)(F)C1` [compound 125, N-(3,3-difluorocyclobutyl)-2,6-dimethoxy-4-[5-(1-methylpyrazol-4-yl)benzimidazol-1-yl]benzamide], the IC50 at SIK1, at SIK3 and on SIK2 was 10 to 100 nM throughout. The compound further had a 50% effective concentration (EC50) in assay [1] of 100 to 1000 nM.

Regarding `COc1cc(-c2cnc3cc(-c4cnn(C)c4)ccn23)cc(OC)c1C(=O)NCC(C)C` [compound 129, N-isobutyl-2,6-dimethoxy-4-[7-(1-methylpvrazol-4-yl)imidazo[1,2-a]pyridin-3-yl]benzamide], the half-inhibitory concentration (IC50) at SIK1 was 10 to 100 nM; against SIK3 it was 0.01 to 10 nM; on SIK2, 0.01 to 10 nM. Besides, in assay [1], the EC50 was in the range of 100 to 1000 nM.

Consider `CCNC(=O)c1c(OC)cc(-c2cnc3cc(-c4ccnnc4)ccn23)cc1OC(F)F` [compound 145, 2-(difluoromethoxy)-N-ethyl-6-methoxy-4-(7-pyridazin-4-ylimidazo[1,2-a]pyridin-3-yl)benzamide], for which the IC50 at SIK1, against SIK3 and at SIK2 was 10 to 100 nM each time. Besides, the EC50 in assay [1] was 1000 to 5000 nM.

As for `CCNC(=O)c1c(OC)cc(-c2cnc3cc(-c4ccc(C#N)nc4)ccn23)cc1OC(F)F` [compound 146, 4-[7-(6-cyano-3-pyridyl)imidazo[1,2-a]pyridin-3-yl]-2-(difluoromethoxy)-N-ethyl-6-methoxy-benzamide], the IC50 at SIK1 lay in the range of 100 to 500 nM; on SIK3, 10 to 100 nM; on SIK2, 10 to 100 nM. Further, in assay [1], the EC50 is 100 to 1000 nM.

Consider `CCNC(=O)c1c(OC)cc(-c2cnc3cc(-c4cnn(C5CCN(C(=O)OC(C)(C)C)CC5)c4)ccn23)cc1OC(F)F` [compound 147, tert-butyl 4-[4-[3-[3-(difluoromethoxy)-4-(ethylcarbamoyl)-5-methoxy-phenyl]imidazo[1,2-a]pyridin-7-yl]pyrazol-1-yl]piperidine-1-carboxylate], for which the IC50 on SIK1, at SIK3 and at SIK2 was 0.01 to 10 nM each time. The compound also showed a half-maximal effective concentration (EC50) in assay [1] of 0.1 to 100 nM.

Regarding `CCNC(=O)c1c(OC)cc(-c2cnc3cc(-c4cnn(C5CCNCC5)c4)ccn23)cc1OC(F)F` [compound 149, 2-(difluoromethoxy)-N-ethyl-6-methoxy-4-[7-[1-(4-piperidyl)pyrazol-4-yl]imidazo[1,2-a]pyridin-3-yl]benzamide], the IC50 on SIK1, on SIK3 and at SIK2 was 0.01 to 10 nM in each case. The EC50 in assay [1] lay in the range of 100 to 1000 nM.

For the compound `CCNC(=O)c1c(OC)cc(-c2cnc3cc(-c4cnn(C(F)F)c4)ccn23)cc1OC(F)F` [compound 151, 2-(difluoromethoxy)-4-[7-[1-(difluoromethyl)pyrazol-4-yl]imidazo[1,2-a]pyridin-3-yl]-N-ethyl-6-methoxy-benzamide], the IC50 at SIK1, at SIK3 and at SIK2 was 0.01 to 10 nM in each case. Besides, in assay [1], the EC50 lay in the range of 0.1 to 100 nM.

Turning to `COc1cc(-n2cnc3cc(-c4cnc(C)[nH]4)ccc32)cc(OC)c1C(=O)NCC(F)(F)F` [compound 152, 2,6-dimethoxy-4-[5-(2-methyl-1H-imidazol-5-yl)benzimidazol-1-yl]-N(2,2,2-trifluoroethyl)benzamide], the IC50 at SIK1, at SIK3 and on SIK2 was 10 to 100 nM each time. The compound further showed a 50% effective concentration (EC50) in assay [1] of 1000 to 5000 nM.

As to `COc1cc(-n2cnc3cc(-c4cnn(C)c4)ccc32)cc(OC)c1C(=O)N[C@@H]1C[C@H]1CO` [compound 156, N-[(1R,2R)-2-(hydroxymethyl)cyclopropyl]-2,6-dimethoxy-4-[5-(1-methylpyrazol-4-yl)benzimidazol-1-yl]benzamide], the IC50 on SIK1, on SIK3 and at SIK2 was 10 to 100 nM throughout. In addition, in assay [1], the EC50 lay in the range of 1000 to 5000 nM.

Take `COc1cc(-n2cnc3cc(-c4cnn(C)c4)ccc32)cc(OC)c1C(=O)N[C@@H]1C[C@H]1C(F)F` [compound 157]: the IC50 on SIK1, at SIK3 and at SIK2 was 10 to 100 nM throughout. The half-maximal effective concentration (EC50) in assay [1] fell in the range of 100 to 1000 nM.

As for `COc1cc(-n2cnc3cc(-c4cnn(C)c4)ccc32)cc(OC)c1C(=O)N[C@@H]1CC[C@H]1O` [compound 159, N-[(1R,2R)-2-hydroxycyclobutyl]-2,6-dimethoxy-4-[5-(1-methylpyrazol-4-yl)benzimidazol-1-yl]benzamide], the IC50 at SIK1, against SIK3 and on SIK2 was 10 to 100 nM each time. Moreover, in assay [1], the EC50 is 100 to 1000 nM.

With `COc1cc(-n2cnc3cc(-c4cn(C)nn4)ccc32)cc(OC)c1C(=O)NCC(F)(F)F` [compound 160, 2,6-dimethoxy-4-[5-(1-methyltriazol-4-yl)benzimidazol-1-yl]-N-(2,2,2-trifluoroethyl)benzamide], the IC50 on SIK1, against SIK3 and at SIK2 was 10 to 100 nM throughout. Further, the EC50 in assay [1] lay within 100 to 1000 nM.

With `COc1cc(-n2cnc3cc(-c4cnn(C)c4)ccc32)cc(OC)c1C(=O)NCCN` [compound 163, N-(2-aminoethyl)-2,6-dimethoxy-4-[5-(1-methylpyrazol-4-yl)benzimidazol-1-yl]benzamide], the IC50 on SIK1, against SIK3 and at SIK2 was 10 to 100 nM in each case. In addition, the EC50 in assay [1] was greater than 5000 nM.

As to `COc1cc(-c2cnc3cc(-c4cnn(C)c4)ccn23)cc(OC)c1C(=O)NC(C)C` [compound 171, N-isopropyl-2,6-dimethoxy-4-[7-(1-methylpyrazol-4-yl)imidazo[1,2-a]pyridin-3-yl]benzamide], the IC50 on SIK1, at SIK3 and on SIK2 was 10 to 100 nM each time. This compound also came in with a concentration giving a half-maximal response (EC50) in assay [1] of 0.1 to 100 nM.

With `COc1cc(-c2cnc3cc(-c4cnn(C)c4)ccn23)cc(NCCO)c1C(=O)NCC(F)(F)F` [compound 205, 2-(2-hydroxyethylamino)-6-methoxy-4-[7-(1-methylpyrazol-4-yl)imidazo[1,2-a]pyridin-3-y 1]-N-(2,2,2-trifluoroethyl)benzamide], the IC50 lay within 10 to 100 nM at SIK1, 0.01 to 10 nM against SIK3 and 0.01 to 10 nM on SIK2. In addition, the EC50 in assay [1] lay within 0.1 to 100 nM.

As for `COc1cc(-c2cnc3cc(-c4cnn(C)c4)ccn23)cc(OC)c1C(=O)N1CC(C)(C)C1` [compound 208, [2,6-dimethoxy-4-[7-(1-methylpyrazol-4-yl)imidazo[1,2-a]pyridin-3-yl]phenyl]-(3,3-dimethylazetidin-1-yl)methanone], the IC50 on SIK1, against SIK3 and on SIK2 was 0.01 to 10 nM in each case. In assay [1], this compound displayed a concentration giving a half-maximal response (EC50) of 100 to 1000 nM.

The term IC50 denotes the midpoint of a concentration-inhibition curve. One may read the EC50 as the concentration needed to bring the measured effect to its halfway point.
